Literature values, collected in patent US9414584B2, “Stabilized hypohalous acid solutions” (PURICORE, INC., priority 2011, dated 2016).
Read-outs that look alike come from different tables or passages of the source.

What was measured:
[1] = test system: S. typhosa
[2] = test system: A. aerogenes
[3] = test system: Escherichia coli; conditions: Escherichia coli exposed to hypochlorous acid
[4] = test system: E. coli
[5] = test system: E. coli; conditions: 2.6 ppm; dilute bacterial suspensions; about 5 minutes
[6] = test system: S. dysenteriae

Row | Structure (SMILES) | concentration required for 100% kill in 5 minutes [1] | concentration required for 100% kill in 5 minutes [2] | time to lose viability [3] | concentration required for 100% kill in 5 minutes [4] | growth inhibition of E. coli [5] | concentration required for 100% kill in 5 minutes [6] | time for 25 mg/mL solution to reach 20 mg/mL of free residual chlorine (20° C., Arrhenius calculation from studies at 50° C. and 70° C.) | loss of titrable chlorine (in the first 6 months) | loss of titrable chlorine (within a year)
1 | OCl [hypochlorous acid] | 0.06 ppm | 0.08 ppm | less than 100 ms | 0.03 ppm | 100% | 0.05 ppm | – | – | –
2 | OCl [sodium hypochlorite solution, sodium hypochlorite] | – | – | – | – | – | – | 166 days | approximately 20% | up to 60%
